Test results reported in patent US20260317340A1, “COMPOUNDS, COMPOSITIONS, AND METHODS OF TREATING DISORDERS” (Chengdu Anticancer Bioscience, Ltd., priority 2023, published 2026).
Like-named read-outs stand apart in the source and are kept apart here.

Experiments:
[1] = test system: RPE-Neo or RPE-MYC or RPE-MYC expressing an EGFP-Histone 2B fusion protein; assay: Phenotypic screening assay: arrest in mitosis, change in DNA content (polyploidy), cell death; assay type: cell-based; details: 20 nM to 20 μM, 24, 48 or 72 hours
How it was run: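 Compound exposure from 20 nM to 20 μM in RPE lines (Neo, MYC, or MYC with EGFP-histone H2B), seeded 18-24 h earlier; imaging at 24, 48 or 72 h read mitotic arrest or altered DNA content, with MTT for proliferation. Results reported as A–D range categories.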

[2] = Tumor growth inhibition, CT26 allograft in BAL B/c mice; assay type: in vivo, mouse tumor cell line in BAL B/c mice; details: oral, 8 mg/kg, 3 days-on, 4 days-off, 20 days, 30% PEG300
Description: (§1) Six- to seven-week-old female BAL B/c nude mice were used in the human cancer cell line NCI-H460, which was derived from a lung cancer patient. Six- to seven-week-old female BAL B/c mice were used in the mouse […] cell line CT26 allograft models. 100 μL cell suspensions containing one million cells with […] (Corning, Cat. No. 354254) were implanted subcutaneously into the right flank of mice. Mice were monitored daily for well-being and weighed twice weekly. Caliper measurements of tumor sizes began when tumors became visible. Tumor volume (TV) was calculated by measuring two perpendicular diameters using the following formula: (L×W2)/2 in which L and W refer to the length and width of a tumor, respectively. When tumors reached an average size of 100 mm3, mice were first ranked according to tumor size and divided into “n” cohorts with X mice in each cohort. Each cohort was then sorted into 1 to X groups according to the random numbers size order generated by the RAND 0)function in Excel. In this way, the mice were randomized into X groups (n=4-6). Then the mice were orally administrated with vehicle (30% PEG 300) or indicated compounds at a dose volume of 5 mL/kg in a double-blinded manner. Oral administration was chosen because this is the intended route of use in the clinic. In all cases, no tumor measurement data or animals were excluded from the data analysis. Percentage of tumor growth inhibition (TGI) was calculated using the following formula: % TGI=average 100×[1−(final TV−initial TV of treatment group)/(final TV−initial TV of control group)]. As set forth in table 3 below, an values of greater than or equal to 35% and less than or equal to 45% […] is marked “C”; a value greater than 45% and less than or equal to 55% is marked “B”; a value greater than 55% and less than or equal to 70% is marked “A”; and […]

[3] = test system: human cancer cell line NCI-H460; assay: Tumor growth inhibition, NCI-H460 tumors in BAL B/c nude mice; assay type: in vivo, human tumor cell line in BAL B/c nude mice; details: oral, 8 mg/kg, 4 days-on, 3 days-off, 20 days, 30% PEG300
Description: as §1

RPE-Neo or RPE-MYC cells = assay: MTT assay of cellular proliferation (proliferative arrest); assay type: cell-based; details: read-out: Min. Effective conc. for Proliferative arrest (>50%)

With `COc1ccc(CN2C(=O)CC(c3ncc(C)o3)=Cc3ccc(-c4cnn(CC(C)(C)O)c4)cc32)cc1` [Compound 37, 8-(1-(2-hydroxy-2-methylpropyl)-1H-pyrazol-4-yl)-1-(4-methoxybenzyl)-4-(5-methyloxazol-2-yl)-1,3-dihydro-2H-benzo[b]azepin-2-one] the minimal effective concentration ([1]; read-out: Min. Effective conc. for Along with Cell Death) was 0.001 to 1 µM, the minimal effective concentration ([1]; ≥5%, read-out: Min. Effective conc. for Mitotic Arrest (≥5%)) was 0.001 to 1 µM and the minimal effective concentration ([1]; ≥5%, read-out: Min. Effective conc. for Polyploidy (≥5%)) was 0.001 to 1 µM. The TGI % [2] was “B (greater than 45% and less than or equal to 55%)”, the TGI % [3] was “A (greater than 55% and less than or equal to 70%)” and the minimal effective concentration (RPE-Neo or RPE-MYC cells) was 0.001 to 1 µM.
